The structures appear in SMILES notation. Read-outs that look alike come from different tables or passages of the source.

The target of test [1] is T1, Cdk12/CycK and DDB1ΔB (Homo sapiens, UniProt Q16531+Q9NYV4, DEL396-705).
T1 construct: the Cdk12 (714–1063)/CycK (1–267) complex and the DDB1ΔB protein; made in house; host or cells: Sf9 insect cells (MultiBacTurbo)
The test can be described thus: Analytical size-exclusion chromatography of DDB1ΔB and Cdk12/CycK. The format is binding. Conditions: 20 μM proteins, 60 μM compound, vs DMSO and THZ531. The method, then: Analytical size-exclusion chromatography was employed to investigate compound-induced protein–protein interactions between the heterodimeric Cdk12 (714–1063)/CycK (1–267) complex and the RING E3 ligase-associated adaptor protein DDB1ΔB. The analysis was conducted on an Agilent 1260 Infinity II HPLC system (Agilent Technologies), coupled with a Superdex 200 Increase 3.2/300 column (Cytiva), pre-equilibrated in Cdk12 SEC buffer (20 mM Hepes pH 7.8, 400 mM NaCl, 1 mM TCEP) supplemented with 1 g L^−1 carboxymethyl-dextran. Purified proteins, combined in equimolar ratios (20 μM Cdk12/CycK and DDB1ΔB, respectively) were supplemented with 3-fold molar excess of small molecular compounds. The resulting protein mixtures were diluted to a final volume of 25 μL using the kinases SEC-buffer ensuring a final DMSO concentration of 2%, followed by an incubation period of 10 min. Upon injection into the analytical system, the chromatography was conducted at a controlled flow rate of 0.05 mL min^−1, with protein absorbance monitored at 280 nm wavelength. Peak fractions were collected drop by drop and subsequently subjected to analysis via dynamic light scattering (DLS) to assess their size distribution, along with SDS-PAGE analysis to determine the composition of the protein complex.

The target in test [2] is T1, Cdk12/CycK and DDB1ΔB. The test can be described thus: Dynamic light scattering of SEC peak fractions. Conditions: SEC peak middle fractions, vs negative controls. The format is binding. The method, then:
To evaluate particle size distribution in liquid solution, dynamic light scattering was employed. Specifically, 10 μL fractions from the central region of peaks obtained in analytical size exclusion chromatography runs were analyzed. This analysis was performed using a DynaPro NanoStar 672 (Wyatt Technology) in a disposable DLS MicroCuvette (Wyatt Technology), while maintaining a constant temperature of 25 °C. Each measurement was conducted with an acquisition time of 3 s, and each data point depicted in the Results section represents the average of 20 individual DLS measurements. The hydrodynamic radius of the protein samples was determined using the processing and analysis software DYNAMICS.

For test [3], the target named is T1, Cdk12/CycK and DDB1ΔB. The test can be described thus: GST pulldown assay, recruitment of DDB1ΔB to Cdk12/CycK. The format is binding. Conditions: GST-Cdk12/GST-CycK bait, 5 μM compound, vs DMSO. The method, then:
The pulldown assay was utilized to identify drug-triggered protein–protein interactions involving the Cdk12 (714–1063)/CycK (1–267) complex and the DDB1ΔB protein. In this assay, purified GST-tagged Cdk12 construct complexed with GST-CycK was combined with equimolar amounts of His6-tagged DDB1ΔB (5 μM) in the presence of 5 μM of the respective small molecular compound in pulldown assay buffer (50 mM Hepes pH 7.4, 200 mM NaCl, 0.25 mM TCEP, 0.05% (v/v) Tween20), ensuring a 2% total DMSO concentration. Experimental controls included samples supplemented with 2% DMSO instead of compound as well as samples devoid of the GST-tagged Cdk12/CycK complex. Each sample was individually added to approximately 50 μL of pre-equilibrated glutathione agarose beads (Thermo Fisher Scientific). The bead suspensions were then subjected to a 2 h incubation period at room temperature with gentle agitation. After incubation, the beads were pelleted by centrifugation at 700 × g for 4 min, the supernatant was discarded, and the beads were washed three-times with 100 μL of pulldown assay buffer. Following the washing step, bound proteins were eluted from the beads with 50 μL of pulldown assay buffer supplemented with 10 mM GSH for 1 h at room temperature under rotation. Subsequently, the beads were again pelleted by centrifugation at 700 × g for 4 min and the resulting supernatants containing eluted protein fractions were mixed with 6 × SDS sample buffer at a 1 : 1 (v/v) ratio. The eluted protein samples were separated by SDS-PAGE and subjected to Coomassie brilliant blue staining for visualization and analysis.

Test [4] concerns the target T2, CDK12/cyclin K + DDB1 (Homo sapiens, UniProt Q16531+Q9NYV4, DEL396-705).
T2 construct: The kinase domain of human CDK12 (Uniprot: Q9NYV4; a.a; 715–1050); GST (N, cleaved yes); made in house; host or cells: Spodoptera frugiperda SF9 insect cells (Bac-to-Bac); CDK12/cyclin K co-infected with S. cerevisiae CAK1
The test can be described thus: Microscale thermophoresis, ternary complex formation. The class given is binding. Conditions: MST. The method, then: Finally, the capacity of small molecules to induce a ternary complex between CDK12/cyclin K and DDB1 in vitro was assessed by microscale thermophoresis (MST). Labeled DDB1ΔBPB was combined with purified CDK12/cyclin K, and fluorescence intensity was monitored with increasing compound concentrations.
Cell pellets were harvested 48 hours post infection via centrifugation and lysed in buffer A (50 mM Tris–HCl (pH 8.0), 200 mM NaCl, 10 mM imidazole, 0.5 mM tris(2-carboxyethyl) phosphine (TCEP)) supplemented with EDTA-free Pierce™ protease inhibitor tablet (Thermo Fisher Scientific). […] The concentrated protein at 2 mg mL^−1 was flash-frozen in liquid nitrogen and stored at −80 °C.
Full-length S. cerevisiae CAK1 (Uniprot: P43568) with an N-terminal His6 tag was subcloned into pFastBac 1 vector. […] The eluted CDK12/cyclin K complex was concentrated to 2 mg mL^−1, flash-frozen in liquid nitrogen and stored at −80 °C.
A protocol to assess ternary binding of molecular glues with CDK12/cycK and DDB1 by MST was established using published procedures for PROTAC interaction with bromodomains and E3 ubiquitin ligases.[38] His8-DDB1-ΔBPB was labeled with the MO-L018 Monolith™ His-tag Labeling Kit RED-tris-NTA 2nd Generation (NanoTemper Technologies) following the instruction manual. 100 nM dye was mixed with 200 nM DDB1 in 50 mM HEPES pH 7.5, 150 mM NaCl, 5% glycerol, 0.05% Tween, and incubated at room temperature for 30 min. […] MST traces were recorded using standard parameters: 5 s MST power off, 30 s MST power on and 5 s MST power off. Measurements were taken at −1 to 0 s (cold region) and 9–10 s (hot region). Data were analyzed using a fitting function derived from the law of mass action:1 [drawing 6] where f(c) is the fluorescence signal (Fnorm) at a given ligand concentration (c), B is Fnorm of fully liganded DDB1 at high ligand concentrations, U is Fnorm of DDB1 alone at low ligand concentrations, Kd is the dissociation constant or binding affinity, cT is the final concentration of DDB1 in the assay (Fig. 3G). For normalization, the data were first transformed using eqn (2) where y is the fraction bound, followed by fitting to eqn (3) (Fig. 5B–E).2 [drawing 7] 3 [drawing 8]

Test [5] deals with CDK12 (Homo sapiens, UniProt Q9NYV4). Briefly: CDK12 functional (kinase inhibition) assay. The format is biochemical. To be noted: vs MR-1187.
The test system of test [6] is HiBiT-tagged cyclin K. The test can be described thus: HiBiT cyclin K degradation assay (DC50, Dmax). The format is cell-based. Conditions: HiBiT-CCNK KI A549 cells, 2 hours, vs DMSO. The method, then: Next, we utilized HiBiT technology (Promega) for quantitative analysis of cyclin K degrader activity. […] Importantly, knockout of CDK12 using CRISPR/Cas9 protected cyclin K from SR-4835-induced degradation (Fig. 1D). We verified the depletion of CDK12 in HEK-293T cells (Fig. S3, ESI ^†).
The HiBiT-CCNK KI A549 cells (Promega) were seeded in 384 well plate and treated with the test compounds for 2 hours in a dose dependent manner. Nano-Glo® HiBiT Lytic Detection System (Promega) composed of the Nano-Glo® HiBiT Lytic Substrate, Nano-Glo® HiBiT Lytic Buffer and LgBiT Protein was used as per the manufacturer's instructions. Briefly, a 2× Nano-Glo® HiBiT Lytic Detection Reagent mixture was prepared by adding 20 μL of Nano-Glo® HiBiT Lytic Substrate and 10 μL of LgBiT protein per every 1 mL of Nano-Glo® HiBiT Lytic Buffer. After incubating the cells with the 2× Nano-Glo® HiBiT Lytic Detection Reagent mixture, luminescence was measured. HiBiT tagged cyclin K present at any given concentration was measured by normalizing the luminescence signal at that concentration to the luminescence signal from the DMSO (control) cells. The concentration necessary to achieve a 50% reduction in cyclin K levels (DC50) and the maximum achievable reduction in cyclin K levels (Dmax) was computed from this assay.

The subject of test [7] is cyclin K. The test can be described thus: Immunofluorescence of nuclear cyclin K in MDA-MB-231 cells. The format is cell-based, human. To be noted: MDA-MB-231 cells, 0.5 µM, 2 h. The method, then: Cells were fixed with 4% PFA in PBS at room temperature, permeabilized with 0.1% Triton X-100 in PBS, and blocked with 3% BSA in PBS at room temperature. Cells were incubated with primary antibodies overnight at 4 °C, followed by incubation with Alexa-Fluor conjugated secondary antibodies for 1 hour at room temperature. Cell nuclei were stained using DAPI. Images were acquired on a confocal microscope (Leica). ImageJ and QuPath were used for image analysis.
Figure S8. Immunofluorescence staining for cyclin K degradation. MDA-MB-231 cells were
treated for 2 h with either DMSO or the indicated compounds (0.5 µM) . Cells were fixed and
Nuclei were stained with DAPI (blue). […]

T2 sequence (Q16531 with tags, fused parts or gaps DEL396-705): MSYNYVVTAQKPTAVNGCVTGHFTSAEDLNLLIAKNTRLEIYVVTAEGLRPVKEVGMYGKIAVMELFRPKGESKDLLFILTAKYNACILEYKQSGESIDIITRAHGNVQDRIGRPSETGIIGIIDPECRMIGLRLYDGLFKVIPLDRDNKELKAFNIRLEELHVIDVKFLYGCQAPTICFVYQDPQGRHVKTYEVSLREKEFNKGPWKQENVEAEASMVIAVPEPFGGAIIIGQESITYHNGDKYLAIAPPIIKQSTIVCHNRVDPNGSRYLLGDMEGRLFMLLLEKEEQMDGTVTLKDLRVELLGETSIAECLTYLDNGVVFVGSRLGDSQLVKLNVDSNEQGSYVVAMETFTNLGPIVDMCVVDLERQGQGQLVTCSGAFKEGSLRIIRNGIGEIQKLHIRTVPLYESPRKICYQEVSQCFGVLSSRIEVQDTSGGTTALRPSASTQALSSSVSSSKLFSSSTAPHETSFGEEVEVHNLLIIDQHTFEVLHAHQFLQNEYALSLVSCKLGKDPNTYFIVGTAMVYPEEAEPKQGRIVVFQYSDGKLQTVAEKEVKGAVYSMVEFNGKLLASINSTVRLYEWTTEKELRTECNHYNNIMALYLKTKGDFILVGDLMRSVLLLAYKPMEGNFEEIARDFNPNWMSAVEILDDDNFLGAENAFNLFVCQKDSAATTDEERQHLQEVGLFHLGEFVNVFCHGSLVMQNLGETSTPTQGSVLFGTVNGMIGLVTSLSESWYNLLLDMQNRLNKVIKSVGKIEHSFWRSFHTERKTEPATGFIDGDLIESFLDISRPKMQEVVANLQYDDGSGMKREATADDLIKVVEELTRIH
T2 sequence (Q9NYV4 715-1050, stated change not applied): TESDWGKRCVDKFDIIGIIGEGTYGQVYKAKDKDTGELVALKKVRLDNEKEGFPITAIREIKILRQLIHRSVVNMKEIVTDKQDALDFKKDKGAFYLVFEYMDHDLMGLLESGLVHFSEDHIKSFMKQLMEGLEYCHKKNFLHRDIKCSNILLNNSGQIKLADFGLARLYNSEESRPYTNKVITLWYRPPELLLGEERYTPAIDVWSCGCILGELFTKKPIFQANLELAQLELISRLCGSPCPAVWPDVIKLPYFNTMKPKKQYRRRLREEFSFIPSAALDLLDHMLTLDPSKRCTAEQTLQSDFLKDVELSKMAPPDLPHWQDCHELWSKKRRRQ
T2 sequence (O75909 11-267 partner limits assumed): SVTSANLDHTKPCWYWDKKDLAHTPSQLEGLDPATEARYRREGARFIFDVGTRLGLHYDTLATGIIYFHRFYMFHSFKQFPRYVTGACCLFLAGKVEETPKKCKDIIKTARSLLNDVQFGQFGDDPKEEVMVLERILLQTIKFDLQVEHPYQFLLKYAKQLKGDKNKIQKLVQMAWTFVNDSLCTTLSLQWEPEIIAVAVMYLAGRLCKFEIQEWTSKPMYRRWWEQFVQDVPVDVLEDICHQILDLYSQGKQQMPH
T1 sequence (Q9NYV4 714-1063, stated change not applied): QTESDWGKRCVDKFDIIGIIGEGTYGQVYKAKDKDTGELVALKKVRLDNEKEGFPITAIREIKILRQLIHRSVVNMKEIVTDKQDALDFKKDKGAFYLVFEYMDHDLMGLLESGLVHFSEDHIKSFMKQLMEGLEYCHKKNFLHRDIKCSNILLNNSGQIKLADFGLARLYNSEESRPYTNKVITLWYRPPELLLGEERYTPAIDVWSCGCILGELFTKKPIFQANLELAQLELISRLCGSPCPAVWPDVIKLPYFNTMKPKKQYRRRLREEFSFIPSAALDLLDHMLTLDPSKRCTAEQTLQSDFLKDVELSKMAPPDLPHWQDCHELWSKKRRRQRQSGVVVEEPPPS
T1 sequence (O75909 1-267 partner limits assumed): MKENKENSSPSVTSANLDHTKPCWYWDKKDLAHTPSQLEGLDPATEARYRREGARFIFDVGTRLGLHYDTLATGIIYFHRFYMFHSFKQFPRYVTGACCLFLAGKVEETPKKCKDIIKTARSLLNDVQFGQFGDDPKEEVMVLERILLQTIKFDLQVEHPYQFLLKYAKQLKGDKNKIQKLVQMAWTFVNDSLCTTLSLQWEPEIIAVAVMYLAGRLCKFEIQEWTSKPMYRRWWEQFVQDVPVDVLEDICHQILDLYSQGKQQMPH
T1 sequence (Q16531 with tags, fused parts or gaps DEL396-705): as the sequence (Q16531 with tags, fused parts or gaps DEL396-705) above
Sequence of CDK12 (Q9NYV4 whole entry): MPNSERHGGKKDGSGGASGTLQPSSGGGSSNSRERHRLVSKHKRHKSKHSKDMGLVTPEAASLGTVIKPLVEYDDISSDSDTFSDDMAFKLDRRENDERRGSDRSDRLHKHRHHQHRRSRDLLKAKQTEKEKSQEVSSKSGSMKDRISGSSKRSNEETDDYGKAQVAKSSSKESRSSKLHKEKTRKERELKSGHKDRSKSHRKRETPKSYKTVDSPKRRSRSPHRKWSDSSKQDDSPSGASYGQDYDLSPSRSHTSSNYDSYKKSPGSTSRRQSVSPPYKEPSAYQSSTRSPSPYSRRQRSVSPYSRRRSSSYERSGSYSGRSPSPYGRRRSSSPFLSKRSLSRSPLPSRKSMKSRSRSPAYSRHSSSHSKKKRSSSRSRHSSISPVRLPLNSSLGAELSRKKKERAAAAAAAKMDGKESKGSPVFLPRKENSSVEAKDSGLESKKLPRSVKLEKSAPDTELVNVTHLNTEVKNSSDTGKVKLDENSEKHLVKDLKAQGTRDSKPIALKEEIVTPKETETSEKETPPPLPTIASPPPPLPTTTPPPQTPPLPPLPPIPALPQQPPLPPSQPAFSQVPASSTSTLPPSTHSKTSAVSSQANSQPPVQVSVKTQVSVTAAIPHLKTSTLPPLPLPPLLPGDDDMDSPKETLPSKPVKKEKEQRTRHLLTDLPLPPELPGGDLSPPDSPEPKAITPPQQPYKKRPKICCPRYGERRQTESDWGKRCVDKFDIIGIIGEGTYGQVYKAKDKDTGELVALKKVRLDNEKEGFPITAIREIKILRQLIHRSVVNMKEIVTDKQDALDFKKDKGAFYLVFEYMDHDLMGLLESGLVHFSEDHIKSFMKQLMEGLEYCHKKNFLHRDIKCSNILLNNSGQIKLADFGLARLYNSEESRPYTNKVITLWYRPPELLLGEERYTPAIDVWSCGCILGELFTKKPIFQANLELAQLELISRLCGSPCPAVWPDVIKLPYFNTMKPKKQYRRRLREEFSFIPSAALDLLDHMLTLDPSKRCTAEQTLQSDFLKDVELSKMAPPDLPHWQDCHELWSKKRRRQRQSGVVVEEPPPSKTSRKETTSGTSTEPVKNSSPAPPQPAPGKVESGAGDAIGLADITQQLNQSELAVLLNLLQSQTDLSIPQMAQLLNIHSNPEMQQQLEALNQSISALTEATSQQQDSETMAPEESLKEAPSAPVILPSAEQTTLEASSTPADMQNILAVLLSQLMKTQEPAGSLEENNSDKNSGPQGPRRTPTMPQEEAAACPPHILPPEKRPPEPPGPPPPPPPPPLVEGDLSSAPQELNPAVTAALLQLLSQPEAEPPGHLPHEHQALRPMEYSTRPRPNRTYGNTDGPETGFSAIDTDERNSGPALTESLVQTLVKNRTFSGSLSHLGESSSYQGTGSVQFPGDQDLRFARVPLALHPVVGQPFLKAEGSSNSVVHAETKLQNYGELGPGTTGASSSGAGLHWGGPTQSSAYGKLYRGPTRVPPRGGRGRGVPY
Sequence of CDK12 (O75909 whole entry partner): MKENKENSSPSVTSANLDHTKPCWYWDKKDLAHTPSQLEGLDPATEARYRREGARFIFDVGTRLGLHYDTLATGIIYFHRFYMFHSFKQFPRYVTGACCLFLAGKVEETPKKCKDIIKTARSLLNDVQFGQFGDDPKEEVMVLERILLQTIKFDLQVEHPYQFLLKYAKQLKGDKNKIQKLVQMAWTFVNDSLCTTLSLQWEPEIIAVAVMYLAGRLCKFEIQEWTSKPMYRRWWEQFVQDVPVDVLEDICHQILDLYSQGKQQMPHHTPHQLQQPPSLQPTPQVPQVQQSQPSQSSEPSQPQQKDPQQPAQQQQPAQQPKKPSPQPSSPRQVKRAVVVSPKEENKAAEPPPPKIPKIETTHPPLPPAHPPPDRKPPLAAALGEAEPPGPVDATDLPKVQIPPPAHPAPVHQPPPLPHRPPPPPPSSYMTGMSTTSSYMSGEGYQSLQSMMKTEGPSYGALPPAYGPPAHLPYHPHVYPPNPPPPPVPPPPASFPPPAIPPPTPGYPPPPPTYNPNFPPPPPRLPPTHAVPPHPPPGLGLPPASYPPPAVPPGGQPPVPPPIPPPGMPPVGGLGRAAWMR

Turning to `CC[C@H](CO)Nc1nc(NCc2ccc(-c3ccccn3)cc2)c2ncn(C(C)C)c2n1` [CR8, reference compound], the “retention time in analytical SEC (ternary complex formation)” value in test [1] was “reduced retention times”. The “hydrodynamic radius (DLS)” value in test [2] was “significantly increased”. In test [3], the “recruitment of DDB1ΔB in pulldown” value is given as “enrichment of DDB1ΔB fractions”.

On to `CCc1cnn2c(NCc3nc4cc(Cl)c(Cl)cc4[nH]3)cc(N3CCCC[C@H]3CCO)nc12` [MR-1226, (S)-2-(1-(7-(((5,6-Dichloro-1H-benzo[d]imidazol-2-yl)methyl)amino)-3-ethylpyrazolo[1,5-a]pyrimidin-5-yl)piperidin-2-yl)ethan-1-ol], for which the Kd in test [4] (labeled DDB1 + CDK12/cyclin K, run #1, read-out: Kd ternary complex formation, replicate #1) was found to be 8.7 ± 2.7 nM; in test [4] (labeled DDB1 + CDK12/cyclin K, run #2, read-out: Kd ternary complex formation, replicate #2), 10.3 ± 4 nM; in test [4] (labeled DDB1 + CDK12/cyclin K, run #3, read-out: Kd ternary complex formation, replicate #3), 9.6 ± 3.3 nM; in test [4] (labeled DDB1ΔBPB 10 nM + CDK12/cyclin K 1000 nM, mean of replicates, read-out: Kd ternary complex formation (average)) it was 9.5 nM. For the same compound, in test [5], the “fold better CDK12 kinase inhibition compared to MR-1187” value amounted to 35 fold. Also, the “Dmax (maximum reduction in cyclin K levels)” value in test [6] is given as over 95%. The “cyclin K nuclear intensity compared to control” value in test [7] is “reduced”.

The values above are taken from article PMC11494886, “Discovery and design of molecular glue enhancers of CDK12–DDB1 interactions for targeted degradation of cyclin K” (RSC Chemical Biology, 2024).
